Test results as given in patent publication US20260256799A1, “INHIBITORS FOR TREATING SOLID TUMOURS” (UNIVERSITY OF SOUTHAMPTON, priority 2023, published 2026).

System: TC-1 cells + TGF-β1-treated murine lung fibroblasts (myoMLF)
Assay: Isograft model TC-1 + myoMLF (myoCAF-high tumours)
Type: in vivo, C57/BL6 female mice
Procedure: SMA immunohistochemistry (IHC; Sigma Aldrich; A2547) on FFPE tissues was performed as previously: in brief, tissues were fixed in 4% paraformaldehyde and embedded in paraffin. 4 μm sections were de-paraffinized, rehydrated and antigen retrieved for 20 minutes at 97° C. using a predefined program on the Dako PT links. Antigen retrieval was performed using Envision FLEX High pH. Endogenous peroxidase activity was blocked using 3% hydrogen peroxide. Mouse Ig blocking reagent (M.O.M kit vector labs) was applied for 1 hour. Primary antibody incubation (1:100) in M.O.M diluent (vector labs) was for 20 minutes. For secondary amplification, M.O.M. Biotinylated anti-Mouse IgG reagentwas applied for 10 minutes followed by Vectorstain elite ABC reagent (vector labs). Chromogenic visualization was completed with 2×5 minute washes in DAB and counterstaining with Haematoxylin. For IHC of CD8 (in house; YTS169), CD4 (BD; RM4-5) and F480 (AbD Serotec; CI:A3-1) tissues were frozen in OCT. 8 μm sections were fixed in 100% acetone for 10 minutes. Endogenous peroxidase activity was blocked using neat peroxidase suppressor (Peirce) for 15 minutes. Sections were blocked for 30 minutes with 2.5% goat serum. Primary antibodies were applied for 2 hours −CD8 (1:800), CD4 (1:100), F480 (1:100). Appropriate species HRP polymer (ImmunoPress, Vector Laboratories) was applied to sections for 30 minutes. Vector NovaRED chromagen substrate (Vector Laboratories) was applied for 2-10 minutes then counterstained with haematoxylin (Vector Laboratories) for 30 seconds. Images were captured using an Olympus CKX41 microscope with Cell B imaging software. % area of staining was calculated using Fiji software (java) by running the ‘color deconvolution’ tool analyzing H DAB. The image was appropriately thresholded based on the ‘color 2’ image. The same thresholding was applied to all images from the same experiment. Regions of interest (margin & core) were confirmed by a pathologist, and each point plotted represents the mean of a minimum of 4 independent fields of view (field diameter=2 mm) from margin and core (one section per mouse). The mean was calculated from 2 or 3 mice/experimental group.
Quantification of SMA staining in mouse tumours was carried out using color thresholding and deconvolution in Fiji. At least three independent fields of view (FoV) of at least three tumours were randomly selected by a consultant pathologist (GJT) to generate a mean value per tumour representing the SMA-positive area %, which was compared between treatment groups.
CD8 and CD4 IHC was performed on frozen tissue embedded in OCT using [YTS169 (CD8; in house) and RM4-5 (CD4; BD) (FIG. 6c & FIG. 12e). 8 μm sections were fixed in 100% acetone for 10 minutes and stained as previously shown. CD8 and CD4 IHC on FFPE was performed using 98941S and 25229S respectively (Cell Signaling; FIG. 6a,g,k,o and FIG. 12a-c,g & 13m,o) using the Leica Bond system according to the manufacturer's instructions (Protocol F mouse 4; HIER 20 MINUTES ER1; Temperature-Ambient; 1:100 dilution; 20 min of NGS blocking incubation). CD8 and CD4 T-cells were counted from ten randomly selected fields of view (FoV) from the tumour by a consultant pathologist (GJT).
All mouse experiments were performed according to national and international guidelines and were approved by the authors' institutional review board and the UK Home Office. Xenograft model: 6.7×10^5 PT cells±2×10^6 HFFF2 cells were resuspended in 100 μl PBS and injected s.c. in the flank of partially immunocompromised, male RAG1−/−C57BL/6 mice (3-5 months old). Isograft models: 0.5×10^5 TC-1 cells±3×10^5 TGF-β1-treated murine lung fibroblasts (myoMLFs) or 1×10^5 MC38 cells±5×10^5 TGF-β1-treated murine colon fibroblasts (myoMCFs) were resuspended in 100 μl PBS and injected s.c. in the flank of C57/BL6 female mice (6-8 weeks old). 5-8 animals for both models were used per group. […]

[1] = AZD0156 20 mg/Kg oral gavage daily
[2] = AZD0156, myoCAF-high TC-1 tumours

In the case of `CN(C)CCCOc1ccc(-c2ccc3ncc4c(c3c2)n(C2CCOCC2)c(=O)n4C)cn1` [AZD0156], the “myofibroblast accumulation (SMA IHC)” value [1] is reported as “suppressed”, the tumour growth [1] is reported as “slowed” and the “CD4 T-cell infiltration (IHC)” value [2] is reported as “unaffected”. For the same molecule, the “location of CD8 T-cells, tumour periphery to tumour core (IHC)” value [2] was “significant relocation”, the “CD8 T-cell phenotype/function (flow cytometry)” value (AZD0156, myoCAF-high tumours) was “did not affect” and the overall survival (AZD0156 daily at day 15-28) was “improved”. The “intratumoural myoCAF accumulation” value (AZD0156 monotherapy in the RAH vaccine experiment) was “effective in reducing”.
